Results published in the supplement of paper PMC10307832.

Columns and labels:
Assay in all cases: relative viability (nuclei count vs DMSO), 5 days (fraction); higher = more cells survive
ABC-1 = tested on: ABC-1
In short: (§1)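 Each reported value is a median over duplicate plates. It expresses relative viability: treated-well nuclei count divided by vehicle-well nuclei count. Lung cancer cell lines in 1536-well plates were dosed by pin tool a day after seeding, alone with one drug or with a fixed anchor-drug dose plus five library-drug doses (not always all listed) in √10 steps, and nuclei were counted after 5 days.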

COR-L23 = tested on: COR-L23
In short: as §1

EPLC-272H = tested on: EPLC-272H
In short: as §1

HARA = tested on: HARA
In short: as §1

HCC-15 = tested on: HCC-15
In short: as §1

HCC-78 = tested on: HCC-78
In short: as §1

LC-2-ad = tested on: LC-2-ad
In short: as §1

LU99A = tested on: LU99A
In short: as §1

NCI-H1355 = tested on: NCI-H1355
In short: as §1

NCI-H1651 = tested on: NCI-H1651
In short: as §1

NCI-H1915 = tested on: NCI-H1915
In short: as §1

NCI-H1993 = tested on: NCI-H1993
In short: as §1

NCI-H2023 = tested on: NCI-H2023
In short: as §1

NCI-H2085 = tested on: NCI-H2085
In short: as §1

NCI-H2126 = tested on: NCI-H2126
In short: as §1

NCI-H2342 = tested on: NCI-H2342
In short: as §1

NCI-H2347 = tested on: NCI-H2347
In short: as §1

NCI-H358 = tested on: NCI-H358
In short: as §1

NCI-H650 = tested on: NCI-H650
In short: as §1

NCI-H838 = tested on: NCI-H838
In short: as §1

PC-14 = tested on: PC-14
In short: as §1

SW 1573 = tested on: SW 1573
In short: as §1

UMC-11 = tested on: UMC-11
In short: as §1

SMILES: O=C(O)c1ccc(-c2c[nH]c3ncc(-c4ccccc4)cc23)cc1C1CCCC1 + O=C(c1cc(Cc2n[nH]c(=O)c3ccccc23)ccc1F)N1CCN(C(=O)C2CC2)CC1 [Olaparib] (partner 8 µM)
- relative viability (ABC-1; first compound 0.04 µM): 1.03
- relative viability (ABC-1; first compound 0.1265 µM): 0.726
- relative viability (ABC-1; first compound 0.4 µM): 0.611
- relative viability (ABC-1; first compound 1.265 µM): 1.1
- relative viability (COR-L23; first compound 0.04 µM): 0.311
- relative viability (COR-L23; first compound 0.1265 µM): 0.353
- relative viability (COR-L23; first compound 0.4 µM): 0.279
- relative viability (COR-L23; first compound 1.265 µM): 0.258
- relative viability (EPLC-272H; first compound 0.04 µM): 0.924
- relative viability (EPLC-272H; first compound 0.1265 µM): 1.05
- relative viability (EPLC-272H; first compound 0.4 µM): 0.566
- relative viability (EPLC-272H; first compound 1.265 µM): 0.257
- relative viability (HARA; first compound 0.04 µM): 0.878
- relative viability (HARA; first compound 0.1265 µM): 0.678
- relative viability (HARA; first compound 0.4 µM): 0.886
- relative viability (HARA; first compound 1.265 µM): 0.329
- relative viability (HCC-15; first compound 0.04 µM): 0.747
- relative viability (HCC-15; first compound 0.1265 µM): 0.671
- relative viability (HCC-15; first compound 0.4 µM): 0.56
- relative viability (HCC-15; first compound 1.265 µM): 0.377
- relative viability (HCC-78; first compound 0.1265 µM): 0.814
- relative viability (HCC-78; first compound 0.4 µM): 0.784
- relative viability (HCC-78; first compound 1.265 µM): 0.71
- relative viability (LC-2-ad; first compound 0.04 µM): 0.651
- relative viability (LC-2-ad; first compound 0.1265 µM): 0.642
- relative viability (LC-2-ad; first compound 0.4 µM): 0.623
- relative viability (LC-2-ad; first compound 1.265 µM): 0.566
- relative viability (LU99A; first compound 0.04 µM): 0.255
- relative viability (LU99A; first compound 0.1265 µM): 0.302
- relative viability (LU99A; first compound 0.4 µM): 0.255
- relative viability (LU99A; first compound 1.265 µM): 0.25
- relative viability (NCI-H1355; first compound 0.04 µM): 0.786
- relative viability (NCI-H1355; first compound 0.1265 µM): 0.837
- relative viability (NCI-H1355; first compound 0.4 µM): 0.666
- relative viability (NCI-H1355; first compound 1.265 µM): 0.323
- relative viability (NCI-H1651; first compound 0.04 µM): 0.17
- relative viability (NCI-H1651; first compound 0.1265 µM): 0.187
- relative viability (NCI-H1651; first compound 0.4 µM): 0.176
- relative viability (NCI-H1651; first compound 1.265 µM): 0.192
- relative viability (NCI-H1915; first compound 0.04 µM): 0.266
- relative viability (NCI-H1915; first compound 0.1265 µM): 0.25
- relative viability (NCI-H1915; first compound 0.4 µM): 0.226
- relative viability (NCI-H1915; first compound 1.265 µM): 0.203
- relative viability (NCI-H1993; first compound 0.04 µM): 0.902
- relative viability (NCI-H1993; first compound 0.1265 µM): 1.19
- relative viability (NCI-H1993; first compound 0.4 µM): 1.04
- relative viability (NCI-H1993; first compound 1.265 µM): 0.974
- relative viability (NCI-H2023; first compound 0.04 µM): 0.475
- relative viability (NCI-H2023; first compound 0.1265 µM): 0.485
- relative viability (NCI-H2023; first compound 0.4 µM): 0.408
- relative viability (NCI-H2023; first compound 1.265 µM): 0.238
- relative viability (NCI-H2085; first compound 0.04 µM): 0.74
- relative viability (NCI-H2085; first compound 0.1265 µM): 0.793
- relative viability (NCI-H2085; first compound 0.4 µM): 0.746
- relative viability (NCI-H2085; first compound 1.265 µM): 0.474
- relative viability (NCI-H2126; first compound 0.04 µM): 0.884
- relative viability (NCI-H2126; first compound 0.1265 µM): 0.861
- relative viability (NCI-H2126; first compound 0.4 µM): 0.853
- relative viability (NCI-H2126; first compound 1.265 µM): 0.64
- relative viability (NCI-H2342; first compound 0.04 µM): 0.456
- relative viability (NCI-H2342; first compound 0.1265 µM): 0.445
- relative viability (NCI-H2342; first compound 0.4 µM): 0.501
- relative viability (NCI-H2342; first compound 1.265 µM): 0.446
- relative viability (NCI-H2347; first compound 0.04 µM): 0.593
- relative viability (NCI-H2347; first compound 0.1265 µM): 0.608
- relative viability (NCI-H2347; first compound 0.4 µM): 0.54
- relative viability (NCI-H2347; first compound 1.265 µM): 0.51
- relative viability (NCI-H358; first compound 0.04 µM): 0.603
- relative viability (NCI-H358; first compound 0.1265 µM): 0.657
- relative viability (NCI-H358; first compound 0.4 µM): 0.529
- relative viability (NCI-H358; first compound 1.265 µM): 0.275
- relative viability (NCI-H650; first compound 0.04 µM): 0.372
- relative viability (NCI-H650; first compound 0.1265 µM): 0.432
- relative viability (NCI-H650; first compound 0.4 µM): 0.324
- relative viability (NCI-H650; first compound 1.265 µM): 0.256
- relative viability (NCI-H838; first compound 0.04 µM): 0.76
- relative viability (NCI-H838; first compound 0.1265 µM): 0.858
- relative viability (NCI-H838; first compound 0.4 µM): 0.732
- relative viability (NCI-H838; first compound 1.265 µM): 0.468
- relative viability (PC-14; first compound 0.04 µM): 0.234
- relative viability (PC-14; first compound 0.1265 µM): 0.263
- relative viability (PC-14; first compound 0.4 µM): 0.268
- relative viability (PC-14; first compound 1.265 µM): 0.243
- relative viability (SW 1573; first compound 0.04 µM): 0.527
- relative viability (SW 1573; first compound 0.1265 µM): 0.528
- relative viability (SW 1573; first compound 0.4 µM): 0.427
- relative viability (SW 1573; first compound 1.265 µM): 0.341
- relative viability (UMC-11; first compound 0.04 µM): 0.366
- relative viability (UMC-11; first compound 0.1265 µM): 0.307
- relative viability (UMC-11; first compound 0.4 µM): 0.825
- relative viability (UMC-11; first compound 1.265 µM): 0.398
